Laboratory results from PubChem BioAssay AID192 (DTP/NCI, 2004).
“And” between values parts separate entries of the source, which are not always exact repeats. Identical values can stand only once. Inconclusive results and toxic doses are left out. Square brackets hold non-standard residues; d marks the D form. Peptide text beside a SMILES is read from it. ξ: configuration not given here. ξV = CC(C)C(N)C(=O)O

Test system: BDF1 mice, B16 melanoma ip, median survival T/C
Test: NCI In Vivo Anticancer Drug Screen. Data for tumor model B16 Melanoma (intraperitoneal) in B6D2F1 (BDF1) mice
Conditions: endpoint: median survival time, higher = longer survival
Description: The antitumor activity of compounds was measured in mice bearing transplantable tumors. Survival or tumor size were measured and the results are expressed as the measurement made in the treated group (T) divided by the measurement made in the vehicle treated control group (C). The tumor model used in this assay is B16 Melanoma (intraperitoneal) in B6D2F1 (BDF1) mice

[1] = dose: 50.0 mg/kg/injection, schedule: Q01DX009 (ip), vehicle: Klucel (hydroxypropylcellulose) (HPC)
[2] = dose: 100.0 mg/kg/injection, schedule: Q01DX009 (ip), vehicle: Klucel (hydroxypropylcellulose) (HPC)
[3] = dose: 200.0 mg/kg/injection, schedule: Q01DX009 (ip), vehicle: Klucel (hydroxypropylcellulose) (HPC)
[4] = dose: 100.0 mg/kg/injection, schedule: Q01DX009 (ip), vehicle: saline with Tween-80
[5] = dose: 3.13 mg/kg/injection, schedule: Q01DX009 (ip), vehicle: saline with Tween-80
[6] = dose: 6.25 mg/kg/injection, schedule: Q01DX009 (ip), vehicle: saline with Tween-80
[7] = dose: 12.5 mg/kg/injection, schedule: Q01DX009 (ip), vehicle: saline with Tween-80
[8] = dose: 25.0 mg/kg/injection, schedule: Q01DX009 (ip), vehicle: saline with Tween-80
[9] = dose: 50.0 mg/kg/injection, schedule: Q01DX009 (ip), vehicle: saline with Tween-80
[10] = dose: 100.0 mg/kg/injection, schedule: Q01DX009 (ip), vehicle: saline
[11] = dose: 200.0 mg/kg/injection, schedule: Q01DX009 (ip), vehicle: saline
[12] = dose: 400.0 mg/kg/injection, schedule: Q01DX009 (ip), vehicle: saline

COc1cccc2c1C(=O)c1c(O)c3c(c(O)c1C2=O)CC(O)(C(C)=O)CC3OC1CC([N+](C)(C)C)C(O)C(C)O1 (centres undefined)
T/C (dose: 1.56 mg/kg/injection, schedule: Q01DX009 (ip), vehicle: water): 110 % of control
T/C (dose: 3.13 mg/kg/injection, schedule: Q01DX009 (ip), vehicle: water): 107 % of control
T/C (dose: 6.25 mg/kg/injection, schedule: Q01DX009 (ip), vehicle: water): 98 % of control
T/C (dose: 12.5 mg/kg/injection, schedule: Q01DX009 (ip), vehicle: water): 110 % of control
T/C (dose: 25.0 mg/kg/injection, schedule: Q01DX009 (ip), vehicle: water): 106 % of control

Cc1ccccc1N=Cc1ccc2c(c1)OCO2
T/C [1]: 102 % of control
T/C [2]: 95 % of control
T/C [3]: 100 % of control

COc1cc2ccc(CC(=O)NCc3ccccc3)cc2cc1OC
T/C [4]: 122 % of control
T/C (dose: 135.0 mg/kg/injection, schedule: Q01DX009 (ip), vehicle: Klucel (hydroxypropylcellulose) (HPC)): 123 % of control
T/C [3]: 110 % of control

C[n+]1ccc(Nc2ccc(NC(=O)c3ccc(Nc4cc[n+](C)c5ccc(N)cc45)cc3)cc2)cc1
T/C (dose: 0.5 mg/kg/injection, schedule: Q01DX009 (ip), vehicle: Klucel (hydroxypropylcellulose) (HPC)): 105 % of control
T/C (dose: 1.0 mg/kg/injection, schedule: Q01DX009 (ip), vehicle: Klucel (hydroxypropylcellulose) (HPC)): 98 % of control and 101 % of control
T/C (dose: 1.0 mg/kg/injection, schedule: Q02DX009 (ip), vehicle: Klucel (hydroxypropylcellulose) (HPC)): 100 % of control and 116 % of control
T/C (dose: 2.0 mg/kg/injection, schedule: Q01DX009 (ip), vehicle: Klucel (hydroxypropylcellulose) (HPC)): 105 % of control and 108 % of control and 111 % of control
T/C (dose: 2.0 mg/kg/injection, schedule: Q02DX009 (ip), vehicle: Klucel (hydroxypropylcellulose) (HPC)): 106 % of control and 112 % of control
T/C (dose: 4.0 mg/kg/injection, schedule: Q01DX009 (ip), vehicle: Klucel (hydroxypropylcellulose) (HPC)): 103 % of control and 111 % of control and 120 % of control
T/C (dose: 4.0 mg/kg/injection, schedule: Q02DX009 (ip), vehicle: Klucel (hydroxypropylcellulose) (HPC)): 109 % of control and 112 % of control
T/C (dose: 8.0 mg/kg/injection, schedule: Q01DX009 (ip), vehicle: Klucel (hydroxypropylcellulose) (HPC)): 109 % of control and 123 % of control and 124 % of control
T/C (dose: 8.0 mg/kg/injection, schedule: Q02DX009 (ip), vehicle: Klucel (hydroxypropylcellulose) (HPC)): 107 % of control and 118 % of control
T/C (dose: 16.0 mg/kg/injection, schedule: Q02DX009 (ip), vehicle: Klucel (hydroxypropylcellulose) (HPC)): 98 % of control and 110 % of control

CO[C@@H]1[C@H](O)CC[C@]2(CO2)[C@H]1[C@@]1(C)O[C@@H]1CC=C(C)C
T/C [5]: 104 % of control
T/C [6]: 102 % of control
T/C [7]: 102 % of control
T/C [8]: 108 % of control
T/C [9]: 123 % of control

OCC1OC(n2cnc3c(Cl)ncnc32)C(O)C1O (centres undefined)
T/C (dose: 12.5 mg/kg/injection, schedule: Q01DX009 (ip), vehicle: saline): 123 % of control
T/C (dose: 25.0 mg/kg/injection, schedule: Q01DX009 (ip), vehicle: saline): 102 % of control
T/C (dose: 50.0 mg/kg/injection, schedule: Q01DX009 (ip), vehicle: saline): 108 % of control
T/C [10]: 105 % of control
T/C [11]: 106 % of control
T/C [12]: 106 % of control

ClC1=C(Cl)C(Cl)=C(Cl)C1=Cc1ccccc1
T/C (dose: 1.56 mg/kg/injection, schedule: Q01DX009 (ip), vehicle: saline with Tween-80): 97 % of control
T/C [5]: 92 % of control
T/C [6]: 102 % of control
T/C [7]: 111 % of control
T/C [8]: 95 % of control

CCC1=C[C@H]2CN(CCc3c([nH]c4ccccc34)[C@@](C(=O)OC)(c3cc4c(cc3OC)N(C)[C@H]3[C@@](O)(C(=O)NC)[C@H](OC(C)=O)[C@]5(CC)C=CCN6CC[C@]43[C@@H]65)C2)C1
T/C (dose: 0.05 mg/kg/injection, schedule: Q01DX009 (ip), vehicle: Klucel (hydroxypropylcellulose) (HPC)): 119 % of control
T/C (dose: 0.06 mg/kg/injection, schedule: Q01DX009 (ip), vehicle: water): 156 % of control
T/C (dose: 0.1 mg/kg/injection, schedule: Q01DX009 (ip), vehicle: Klucel (hydroxypropylcellulose) (HPC)): 113 % of control
T/C (dose: 0.12 mg/kg/injection, schedule: Q01DX009 (ip), vehicle: water): 160 % of control and 183 % of control
T/C (dose: 0.12 mg/kg/injection, schedule: Q04DX003 (ip), vehicle: water): 123 % of control
T/C (dose: 0.2 mg/kg/injection, schedule: Q01DX009 (ip), vehicle: Klucel (hydroxypropylcellulose) (HPC)): 124 % of control
T/C (dose: 0.25 mg/kg/injection, schedule: Q01DX009 (ip), vehicle: water): 181 % of control and 220 % of control
T/C (dose: 0.5 mg/kg/injection, schedule: Q01DX009 (ip), vehicle: water): 157 % of control
T/C (dose: 0.5 mg/kg/injection, schedule: Q04DX003 (ip), vehicle: water): 156 % of control
T/C (dose: 1.6 mg/kg/injection, schedule: Q01DX009 (ip), vehicle: Klucel (hydroxypropylcellulose) (HPC)): 181 % of control

O=CC(NC(=O)N(CCCl)N=O)C(O)C(O)C(O)CO (centres undefined)
T/C (dose: 1.3 mg/kg/injection, schedule: Q01DX009 (ip), vehicle: saline): 153 % of control
T/C (dose: 3.0 mg/kg/injection, schedule: Q01DX009 (ip), vehicle: saline): 101 % of control and 201 % of control
T/C (dose: 4.0 mg/kg/injection, schedule: Q01DX009 (ip), vehicle: saline): 198 % of control
T/C (dose: 4.5 mg/kg/injection, schedule: Q01DX009 (ip), vehicle: saline): 109 % of control and 201 % of control
T/C (dose: 6.25 mg/kg/injection, schedule: Q01DX001 (ip), vehicle: saline): 154 % of control
T/C (dose: 6.7 mg/kg/injection, schedule: Q01DX009 (ip), vehicle: saline): 287 % of control
T/C (dose: 7.5 mg/kg/injection, schedule: Q01DX001 (ip), vehicle: saline with Tween-80): 184 % of control
T/C (dose: 8.0 mg/kg/injection, schedule: Q01DX009 (ip), vehicle: saline): 91 % of control
T/C (dose: 10.0 mg/kg/injection, schedule: Q01DX009 (ip), vehicle: saline): 159 % of control
T/C (dose: 12.5 mg/kg/injection, schedule: Q01DX001 (ip), vehicle: saline): 191 % of control
T/C (dose: 13.0 mg/kg/injection, schedule: Q01DX001 (ip), vehicle: saline): 201 % of control
T/C (dose: 15.0 mg/kg/injection, schedule: Q01DX001 (ip), vehicle: saline with Tween-80): 284 % of control
T/C (dose: 20.0 mg/kg/injection, schedule: Q01DX001 (ip), vehicle: saline): 163 % of control and 259 % of control
T/C (dose: 25.0 mg/kg/injection, schedule: Q01DX001 (ip), vehicle: saline): 277 % of control
T/C (dose: 30.0 mg/kg/injection, schedule: Q01DX001 (ip), vehicle: saline with Tween-80): 285 % of control
T/C (dose: 30.0 mg/kg/injection, schedule: Q01DX001 (ip), vehicle: saline): 114 % of control and 287 % of control
T/C (dose: 67.0 mg/kg/injection, schedule: Q01DX001 (ip), vehicle: saline): 287 % of control

O=[N+]([O-])c1cc([As](=O)(O)O)ccc1Cl
T/C (dose: 25.0 mg/kg/injection, schedule: Q01DX009 (ip), vehicle: Klucel (hydroxypropylcellulose) (HPC)): 100 % of control
T/C [1]: 96 % of control
T/C [2]: 96 % of control

CCCCN(CCCC)CC(O)c1ccnc2cc3c(cc12)OCO3 (centres undefined)
T/C (dose: 25.0 mg/kg/injection, schedule: Q04DX003 (ip), vehicle: Klucel (hydroxypropylcellulose) (HPC)): 94 % of control
T/C (dose: 50.0 mg/kg/injection, schedule: Q04DX003 (ip), vehicle: Klucel (hydroxypropylcellulose) (HPC)): 89 % of control
T/C (dose: 100.0 mg/kg/injection, schedule: Q04DX003 (ip), vehicle: Klucel (hydroxypropylcellulose) (HPC)): 89 % of control

Cc1ccc(Cl)cc1NC(=O)COc1ccc(Cl)cc1
T/C [8]: 92 % of control
T/C [9]: 91 % of control
T/C [4]: 88 % of control

CCC1(c2ccccc2)SC(=O)NC1=O (centres undefined)
T/C [9]: 98 % of control
T/C [4]: 104 % of control

CC(C)C(NC(=O)CN)C(=O)O (centres undefined) (H-Gly-[ξV]-OH)
T/C [10]: 102 % of control
T/C (dose: 100.0 mg/kg/injection, schedule: Q04DX003 (ip), vehicle: saline): 102 % of control
T/C [11]: 100 % of control
T/C (dose: 200.0 mg/kg/injection, schedule: Q04DX003 (ip), vehicle: saline): 97 % of control
T/C [12]: 90 % of control
T/C (dose: 400.0 mg/kg/injection, schedule: Q04DX003 (ip), vehicle: saline): 95 % of control

CC(Oc1ccccc1)C(=O)c1ccccc1 (centres undefined)
T/C [4]: 90 % of control
T/C (dose: 200.0 mg/kg/injection, schedule: Q01DX009 (ip), vehicle: saline with Tween-80): 90 % of control
T/C (dose: 400.0 mg/kg/injection, schedule: Q01DX009 (ip), vehicle: saline with Tween-80): 93 % of control
